Measurements published in ChEMBL document CHEMBL1938343, “Lead optimisation of selective non-zinc binding inhibitors of MMP13. Part 2” (Bioorg Med Chem Lett, 2012).

Key:
[1] = Clearance in dog at 1 mg/kg, iv and 1 mg/kg, po; type: ADME, organism-based, Canis lupus familiaris; conditions: in vivo
[2] = Half life in dog at 1 mg/kg, iv and 1 mg/kg, po; type: ADME, organism-based, Canis lupus familiaris; conditions: in vivo
[3] = target: 72 kDa type IV collagenase (Homo sapiens, UniProt P08253); assay: Inhibition of MMP2 using Mca-Pro-cyclohexyl-Ala-Gly-Nva-His-Ala- Dap(Dnp)-NH2 as substrate by fluorometric analysis; conditions: read-out: IC50
Sequence of 72 kDa type IV collagenase (P08253 whole entry): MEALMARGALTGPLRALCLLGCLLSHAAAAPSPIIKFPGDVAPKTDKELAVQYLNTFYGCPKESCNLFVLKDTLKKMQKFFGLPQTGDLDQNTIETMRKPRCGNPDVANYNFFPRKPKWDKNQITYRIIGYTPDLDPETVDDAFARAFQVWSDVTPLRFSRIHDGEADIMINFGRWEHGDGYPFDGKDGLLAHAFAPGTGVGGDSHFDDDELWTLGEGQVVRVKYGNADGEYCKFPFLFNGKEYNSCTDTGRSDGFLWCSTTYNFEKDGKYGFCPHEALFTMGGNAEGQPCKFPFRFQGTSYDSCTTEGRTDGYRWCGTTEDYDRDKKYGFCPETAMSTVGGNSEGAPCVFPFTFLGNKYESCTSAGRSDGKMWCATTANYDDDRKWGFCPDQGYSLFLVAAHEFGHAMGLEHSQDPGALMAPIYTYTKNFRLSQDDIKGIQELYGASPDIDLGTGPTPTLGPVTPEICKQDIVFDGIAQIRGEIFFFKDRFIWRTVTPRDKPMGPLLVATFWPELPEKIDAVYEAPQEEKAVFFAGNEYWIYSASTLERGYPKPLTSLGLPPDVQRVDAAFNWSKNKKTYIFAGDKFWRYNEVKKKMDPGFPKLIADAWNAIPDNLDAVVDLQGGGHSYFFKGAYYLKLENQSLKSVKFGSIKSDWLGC

[4] = target: Cytochrome P450 2C19 (Homo sapiens, UniProt P33261); assay: Inhibition of CYP2C19; type: ADME; conditions: read-out: IC50
Sequence of Cytochrome P450 2C19 (P33261 whole entry): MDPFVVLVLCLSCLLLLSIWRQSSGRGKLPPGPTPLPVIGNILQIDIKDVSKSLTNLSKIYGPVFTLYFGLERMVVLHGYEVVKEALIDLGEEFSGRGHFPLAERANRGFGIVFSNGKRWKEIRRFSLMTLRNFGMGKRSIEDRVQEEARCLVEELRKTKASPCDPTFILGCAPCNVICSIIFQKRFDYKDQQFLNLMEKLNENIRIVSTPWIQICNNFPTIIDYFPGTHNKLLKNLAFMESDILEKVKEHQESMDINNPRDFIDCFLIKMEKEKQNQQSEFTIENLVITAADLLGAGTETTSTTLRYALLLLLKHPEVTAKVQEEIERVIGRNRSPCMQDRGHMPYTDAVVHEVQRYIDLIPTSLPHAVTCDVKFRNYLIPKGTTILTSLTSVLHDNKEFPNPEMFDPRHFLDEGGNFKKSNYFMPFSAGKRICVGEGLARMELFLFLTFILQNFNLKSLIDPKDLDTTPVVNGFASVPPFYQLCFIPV

[5] = target: Matrix metalloproteinase-14 (Homo sapiens, UniProt P50281); assay: Inhibition of MMP14 using Mca-Pro-cyclohexyl-Ala-Gly-Nva-His-Ala- Dap(Dnp)-NH2 as substrate by fluorometric analysis; conditions: read-out: IC50
[6] = Cytotoxicity in mouse spleen macrophages assessed as phospholipidosis; conditions: Macrophage
[7] = Oral bioavailability in dog; type: ADME, organism-based, Canis lupus familiaris; conditions: in vivo
[8] = target: Matrix metalloproteinase-9 (Homo sapiens, UniProt P14780); assay: Inhibition of MMP9 using Mca-Pro-cyclohexyl-Ala-Gly-Nva-His-Ala- Dap(Dnp)-NH2 as substrate by fluorometric analysis; conditions: read-out: IC50
Sequence of Matrix metalloproteinase-9 (P14780 whole entry): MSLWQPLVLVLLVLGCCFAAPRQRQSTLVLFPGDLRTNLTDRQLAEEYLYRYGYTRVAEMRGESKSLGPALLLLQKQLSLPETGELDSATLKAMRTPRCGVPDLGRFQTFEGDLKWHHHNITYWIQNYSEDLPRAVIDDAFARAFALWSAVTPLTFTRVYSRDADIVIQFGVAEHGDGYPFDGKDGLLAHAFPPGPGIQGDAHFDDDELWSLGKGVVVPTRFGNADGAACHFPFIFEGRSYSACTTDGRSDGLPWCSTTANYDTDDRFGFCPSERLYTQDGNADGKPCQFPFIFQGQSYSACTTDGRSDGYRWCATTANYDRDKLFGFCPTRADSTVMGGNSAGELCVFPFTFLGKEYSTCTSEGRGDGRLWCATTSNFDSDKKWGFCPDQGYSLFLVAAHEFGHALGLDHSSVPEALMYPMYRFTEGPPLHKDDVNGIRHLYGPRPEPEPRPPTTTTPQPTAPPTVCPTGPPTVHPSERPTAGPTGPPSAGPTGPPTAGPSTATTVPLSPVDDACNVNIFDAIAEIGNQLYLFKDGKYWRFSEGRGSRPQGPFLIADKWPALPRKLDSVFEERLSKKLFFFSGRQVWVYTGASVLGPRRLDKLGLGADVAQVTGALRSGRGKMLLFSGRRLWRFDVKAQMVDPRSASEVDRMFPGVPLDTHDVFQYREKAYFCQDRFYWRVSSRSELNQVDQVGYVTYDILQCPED

[9] = Fraction unbound in dog; type: ADME, organism-based, Canis lupus familiaris; conditions: in vivo
[10] = Renal elimination in rat at 2 mg/kg, iv; type: ADME, organism-based; parameters: dose 2 mg/kg, route intravenous; conditions: urine, read-out: Ae
[11] = test system: Hepatocyte; assay: Intrinsic clearance in Sprague-Dawley rat hepatocytes assessed per 10^6 cells; type: ADME, cell-based
[12] = target: Stromelysin-1 (Homo sapiens, UniProt P08254); assay: Inhibition of MMP3 using Mca-Pro-cyclohexyl-Ala-Gly-Nva-His-Ala- Dap(Dnp)-NH2 as substrate by fluorometric analysis
Sequence of Stromelysin-1 (P08254 whole entry): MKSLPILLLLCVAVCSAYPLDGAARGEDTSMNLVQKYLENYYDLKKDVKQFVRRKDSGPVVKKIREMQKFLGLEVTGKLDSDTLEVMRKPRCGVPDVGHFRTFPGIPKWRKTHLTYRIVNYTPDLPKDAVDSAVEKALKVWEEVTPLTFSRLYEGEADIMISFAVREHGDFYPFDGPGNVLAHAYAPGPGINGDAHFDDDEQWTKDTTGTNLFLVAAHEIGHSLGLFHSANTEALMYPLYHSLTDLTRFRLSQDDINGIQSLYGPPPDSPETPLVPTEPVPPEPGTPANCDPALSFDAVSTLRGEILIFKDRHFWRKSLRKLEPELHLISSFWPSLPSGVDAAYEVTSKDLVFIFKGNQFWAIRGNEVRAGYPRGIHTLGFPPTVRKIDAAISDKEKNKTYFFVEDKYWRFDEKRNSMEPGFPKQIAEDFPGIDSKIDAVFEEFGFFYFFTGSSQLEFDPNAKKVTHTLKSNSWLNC

[13] = Fraction unbound in human; type: ADME, organism-based; conditions: in vivo
[14] = test system: Rattus norvegicus; assay: Oral bioavailability in rat; type: ADME, organism-based; conditions: in vivo
[15] = Apparent permeability across basolateral to apical side in human Caco2 cells at 10 uM; type: ADME, cell-based; conditions: Caco-2
[16] = Half life in rat at 2 mg/kg, iv; type: ADME, organism-based; parameters: dose 2 mg/kg, route intravenous; conditions: in vivo
[17] = Volume of distribution at steady state in dog at 1 mg/kg, iv and 1 mg/kg, po; type: ADME, organism-based, Canis lupus familiaris; conditions: in vivo, read-out: Vdss
[18] = target: Cytochrome P450 2D6 (Homo sapiens, UniProt P10635); assay: Inhibition of CYP2D6; type: ADME; conditions: read-out: IC50
Sequence of Cytochrome P450 2D6 (P10635 whole entry): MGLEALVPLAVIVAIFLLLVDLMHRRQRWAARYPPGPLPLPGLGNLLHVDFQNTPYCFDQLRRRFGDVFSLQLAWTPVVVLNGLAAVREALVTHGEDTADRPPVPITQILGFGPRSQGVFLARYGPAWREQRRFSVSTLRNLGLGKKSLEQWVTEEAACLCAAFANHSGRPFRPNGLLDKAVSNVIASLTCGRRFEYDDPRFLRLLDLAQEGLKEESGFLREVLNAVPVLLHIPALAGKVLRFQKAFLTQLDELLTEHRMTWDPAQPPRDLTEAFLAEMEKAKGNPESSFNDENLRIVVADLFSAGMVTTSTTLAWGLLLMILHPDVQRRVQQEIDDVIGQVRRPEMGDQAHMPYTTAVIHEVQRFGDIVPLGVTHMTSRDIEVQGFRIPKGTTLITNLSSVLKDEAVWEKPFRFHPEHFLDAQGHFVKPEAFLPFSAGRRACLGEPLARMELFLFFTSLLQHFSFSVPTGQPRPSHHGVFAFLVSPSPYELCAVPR

[19] = target: Cytochrome P450 2C9 (Homo sapiens, UniProt P11712); assay: Inhibition of CYP2C9; type: ADME; conditions: read-out: IC50
Sequence of Cytochrome P450 2C9 (P11712 whole entry): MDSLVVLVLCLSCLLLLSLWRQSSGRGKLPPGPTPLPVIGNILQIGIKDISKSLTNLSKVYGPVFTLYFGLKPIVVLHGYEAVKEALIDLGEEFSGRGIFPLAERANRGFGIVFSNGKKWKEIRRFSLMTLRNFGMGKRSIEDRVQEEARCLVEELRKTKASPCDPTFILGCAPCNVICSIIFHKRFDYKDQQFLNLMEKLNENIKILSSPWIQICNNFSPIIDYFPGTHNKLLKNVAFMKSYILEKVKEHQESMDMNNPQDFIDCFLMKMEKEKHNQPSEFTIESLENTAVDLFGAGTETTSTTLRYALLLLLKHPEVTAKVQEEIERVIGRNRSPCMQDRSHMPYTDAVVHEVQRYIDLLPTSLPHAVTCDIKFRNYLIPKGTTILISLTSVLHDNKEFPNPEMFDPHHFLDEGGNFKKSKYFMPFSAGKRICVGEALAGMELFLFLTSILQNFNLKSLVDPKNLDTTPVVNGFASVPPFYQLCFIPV

[20] = Intrinsic clearance in human hepatocytes assessed per 10^6 cells; type: ADME, cell-based, Hepatocyte; conditions: read-out: CLH
[21] = Thermodynamic solubility of the compound
[22] = target: Cytochrome P450 3A4 (Homo sapiens, UniProt P08684); assay: Inhibition of CYP3A4; type: ADME; conditions: read-out: IC50
Sequence of Cytochrome P450 3A4 (P08684 whole entry): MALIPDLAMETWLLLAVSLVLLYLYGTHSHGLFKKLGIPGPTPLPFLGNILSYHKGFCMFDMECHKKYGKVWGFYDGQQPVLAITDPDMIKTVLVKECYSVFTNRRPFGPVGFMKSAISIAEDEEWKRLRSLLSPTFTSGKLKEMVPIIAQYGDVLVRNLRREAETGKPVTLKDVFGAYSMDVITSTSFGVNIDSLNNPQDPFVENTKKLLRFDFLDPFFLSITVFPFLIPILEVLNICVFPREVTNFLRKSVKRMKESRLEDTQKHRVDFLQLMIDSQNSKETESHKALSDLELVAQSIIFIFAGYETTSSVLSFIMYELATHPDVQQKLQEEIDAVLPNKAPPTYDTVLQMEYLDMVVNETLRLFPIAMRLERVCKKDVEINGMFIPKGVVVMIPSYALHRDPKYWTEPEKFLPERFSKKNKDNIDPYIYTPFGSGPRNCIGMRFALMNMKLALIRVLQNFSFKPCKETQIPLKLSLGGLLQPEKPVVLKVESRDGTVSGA

[23] = target: Macrophage metalloelastase (Homo sapiens, UniProt P39900); assay: Inhibition of MMP12 using Mca-Pro-cyclohexyl-Ala-Gly-Nva-His-Ala- Dap(Dnp)-NH2 as substrate by fluorometric analysis; conditions: read-out: IC50
Sequence of Macrophage metalloelastase (P39900 whole entry): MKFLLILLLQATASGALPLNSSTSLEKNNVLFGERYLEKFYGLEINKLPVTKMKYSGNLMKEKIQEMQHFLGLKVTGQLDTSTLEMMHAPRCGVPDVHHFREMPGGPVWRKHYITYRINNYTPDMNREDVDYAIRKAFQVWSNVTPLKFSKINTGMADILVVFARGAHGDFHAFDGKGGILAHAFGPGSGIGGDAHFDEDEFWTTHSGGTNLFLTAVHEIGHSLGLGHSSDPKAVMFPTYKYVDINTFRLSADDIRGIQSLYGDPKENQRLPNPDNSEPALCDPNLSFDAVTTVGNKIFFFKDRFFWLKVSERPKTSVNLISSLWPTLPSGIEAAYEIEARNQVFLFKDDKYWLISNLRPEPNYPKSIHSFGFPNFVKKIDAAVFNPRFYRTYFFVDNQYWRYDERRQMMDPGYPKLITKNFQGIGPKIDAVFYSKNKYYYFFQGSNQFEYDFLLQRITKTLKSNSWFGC

[24] = Apparent permeability across apical to basolateral side in human Caco2 cells at 10 uM; type: ADME, cell-based; conditions: Caco-2
[25] = Fraction unbound in rat; type: ADME, organism-based; conditions: in vivo
[26] = Lipophilicity, log D of the compound; conditions: octanol/water
[27] = Volume of distribution at steady state in rat at 2 mg/kg, iv; type: ADME, organism-based; parameters: dose 2 mg/kg, route intravenous; conditions: in vivo, read-out: Vdss
[28] = target: T1, Matrix metalloproteinase-19 (Homo sapiens, UniProt Q99542); assay: Inhibition of MMP19 using Mca-Pro-cyclohexyl-Ala-Gly-Nva-His-Ala- Dap(Dnp)-NH2 as substrate by fluorometric analysis
T1 sequence (Q99542 whole entry): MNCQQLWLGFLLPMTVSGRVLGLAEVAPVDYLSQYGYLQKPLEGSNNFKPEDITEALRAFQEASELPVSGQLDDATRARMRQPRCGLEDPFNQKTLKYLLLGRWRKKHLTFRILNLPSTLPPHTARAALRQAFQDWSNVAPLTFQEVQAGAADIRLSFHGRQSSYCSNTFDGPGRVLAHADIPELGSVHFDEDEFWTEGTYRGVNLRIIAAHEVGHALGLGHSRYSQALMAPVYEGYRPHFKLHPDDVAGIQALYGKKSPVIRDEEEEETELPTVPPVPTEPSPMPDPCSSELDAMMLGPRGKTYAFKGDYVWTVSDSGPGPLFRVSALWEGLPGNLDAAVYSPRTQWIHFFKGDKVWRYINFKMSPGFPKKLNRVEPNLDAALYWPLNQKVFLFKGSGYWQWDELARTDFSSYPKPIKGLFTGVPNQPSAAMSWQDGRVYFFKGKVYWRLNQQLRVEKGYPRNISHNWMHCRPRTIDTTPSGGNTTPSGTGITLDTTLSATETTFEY

[29] = target: T2, Interstitial collagenase (Homo sapiens, UniProt P03956); assay: Inhibition of MMP1 using Mca-Pro-cyclohexyl-Ala-Gly-Nva-His-Ala- Dap(Dnp)-NH2 as substrate by fluorometric analysis
T2 sequence (P03956 whole entry): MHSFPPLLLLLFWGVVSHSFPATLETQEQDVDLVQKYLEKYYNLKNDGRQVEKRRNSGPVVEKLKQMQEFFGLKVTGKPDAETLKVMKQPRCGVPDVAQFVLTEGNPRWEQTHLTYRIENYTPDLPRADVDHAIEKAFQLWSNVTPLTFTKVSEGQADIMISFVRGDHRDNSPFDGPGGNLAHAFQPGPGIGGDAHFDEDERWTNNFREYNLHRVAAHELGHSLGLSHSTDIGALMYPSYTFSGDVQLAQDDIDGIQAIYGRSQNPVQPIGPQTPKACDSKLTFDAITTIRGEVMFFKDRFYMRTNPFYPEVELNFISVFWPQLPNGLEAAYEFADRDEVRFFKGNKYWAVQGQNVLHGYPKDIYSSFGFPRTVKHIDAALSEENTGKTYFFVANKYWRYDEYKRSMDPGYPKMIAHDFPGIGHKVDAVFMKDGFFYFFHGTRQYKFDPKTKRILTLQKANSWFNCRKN

## O=C(NC1CCCS(=O)(=O)C1)c1ccc(Oc2ccc(C#C[C@]3(O)CN4CCC3CC4)cc2)cc1 (single isomer, unassigned; diastereomer 1)
[1]
  clearance: 13 mL/min/kg
[2]
  half-life: 5 h
[3]
  IC50: 5.1 µM
[4]
  IC50: > 10 µM
[5]
  IC50: > 10 µM
[6]
  EC50: 116 µM
[7]
  bioavailability: 21%
[8]
  IC50: > 10 µM
[9]
  fraction unbound: 0.33
[10]
  dose excreted: < 1%
[11]
  CLH: 2.9 µL/min
[12]
  IC50: > 10 µM
[13]
  fraction unbound: 0.25
[14]
  F: 35%
[15]
  Papp B→A at 10 µM: 43.5 ×10⁻⁶ cm/s
[16]
  half-life: 4.8 h
[17]
  Vd: 3.9 L/kg
[18]
  IC50: > 10 µM
[19]
  IC50: > 10 µM
[20]
  hepatocyte CLint: < 2 µL/min/1e6 cells
[21]
  Therm_solubility: 160 µM
[22]
  IC50: > 10 µM
[23]
  IC50: > 10 µM
[24]
  Papp A→B at 10 µM: 1.3 ×10⁻⁶ cm/s
[25]
  fraction unbound: 0.27
[26]
  logD: 1.4
[27]
  Vd: 5.9 L/kg
[28]
  IC50: > 10 µM
[29]
  IC50: > 10 µM
